The assay has as its system 192522-019-R-J2-PDC complex tumor spheroid viability. Put plainly: Anticancer human tumor 192522-019-R-J2-PDC patient-derived colon adenocarcinoma cell line growth inhibition [POLQ]. The following applies: for viability, T/C: stronger effect = lower value. The method, then:
Multicellular complex tumor spheroid response to Polymerase (POL) inhibitors (novobiocin, ART-558, RP6685) in combination with a variety of drugs and investigational agents in selected tumor cell lines
The POL inhibitors (novobiocin, ART-558, and RP6685) were evaluated both individually and in combination with standard of care and investigational anticancer small molecules within a complex spheroid model of solid tumors. . Complex spheroids include a stromal component modeled by human endothelial cells (HUVEC) and fibroblasts modeled by human mesenchymal stem cells (MSCs). The concentration ranges selected for each drug and investigational agent were based upon clinically achievable concentrations if the clinical Cmax of the agent was known.
Compounds. The drugs and investigational agents: novobiocin (NSC847541), ART-558 (NSC835418), RP-6685 (NSC848927), peposertib (NSC802822), ceralasertib (NSC780249), elimusertib (NSC800525), camonsertib (NSC841442), AZD-1390 (NSC803789), olaparib (NSC753686), talazoparib (NSC767125), rucaparib (NSC756644), sotorasib (NSC818433), MRTX-1133 (NSC836407), SN-38 (NSC673596), topotecan (NSC609699), epotoside (NSC141540), doxorubicin (NSC123127), gemcitabine (NSC613327), 5-fluorouracil (NSC19893), paclitaxel (NSC125973), vemurafenib (NSC761431), MSA-2 (NSC828583), SN-011 (NSC837082), adavosertib (NSC754352), prexasertib (NSC758257), carboplatin (NSC241240) and oxaliplatin (NSC266046), were obtained from the National Cancer Institute (NCI) Developmental Therapeutics Program Chemical Repository (21). The FDA-approved anticancer drug set is available from the Developmental Therapeutics Program at https://dtp.cancer.gov/organization/dscb/obtaining/. […] The stock solutions were prepared in dimethyl sulfoxide (DMSO, Sigma-Aldrich, St. Louis, MO, cat. D2650), except for the platinum compounds which were prepared in saline (Quality Biological, Gaithersburg, MD, cat. 114-055-101), at 800-fold the tested concentration and stored at -70 degrees C prior to their use. All drugs and investigational agents were tested over a range starting from a high concentration at or near the clinical Cmax and decreasing in half-log increments. If the clinical Cmax for an agent had not been determined, the highest concentration tested was 10 microM, except for SN-38, which was tested at a high concentration of 1 microM.
Cell Culture. All cells were maintained in an incubator at 37 degrees C and 5% CO2 with 95% humidity. The PDC lines were cultured according to standard operating procedures established by the NCI PDMR (https://pdmr.cancer.gov). Table 3 of the manuscript, lists the cell lines along with the number of the three cell types plated to form the mct-spheroids and media for tumor cell growth. After thawing, all PDC lines, except 997537-175-T-J1-PDC and 415267-285-R-J2-PDC, were cultured in Matrigel-coated flasks prepared with a working solution of 1X Ham's F-12 nutrient mix, without supplementation (Thermo Fisher Scientific, cat. 11765054), 100 U/mL penicillin-streptomycin (Thermo Fisher Scientific, cat. 15140122), and 2.5% Matrigel (Corning Inc., Corning, NY, cat. 354248) for the first three passages. The two PDC lines 997537-175-T-J1-PDC and 415267-285-R-J2-PDC were cultured on uncoated flasks. The 857933-349-R-J2-PDC line was cultured in 6C/Colon 1B media containing advanced DMEM/F-12 (Thermo Fisher Scientific, cat. 12634028), 10 mM HEPES (Thermo Fisher Scientific, cat. 15630080), 1X GlutaMAX supplement (Thermo Fisher Scientific, cat. 35050061), 0.1 mg/mL primocin (InvivoGen, San Diego, CA, cat. ant-pm-2), 10% defined fetal bovine serum, heat inactivated (HyClone Laboratories Inc., Logan, UT, cat. SH30070.03HI), 50% L-WRN conditioned media (ATCC, cat. CRL-3276), 1.25 mM N-Acetyl-L-cysteine (Sigma-Aldrich, cat. A9165), 10 mM nicotinamide (Sigma-Aldrich, cat. N0636), 1X B-27 supplement (Thermo Fisher Scientific, cat. 17504044), 1X N-2 supplement (Thermo Fisher Scientific, cat. […]

Each structure is given as a SMILES string. “And” between values parts separate entries of the source, which are not always exact repeats. Identical values can stand only once.
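Note: spheroids exposed to drugs for seven days before reading.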
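Throughout, for viability, T/C: 100% = DMSO vehicle control viability in luminescence.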

For the molecule `C#Cc1c(F)ccc2cc(O)cc(-c3ncc4c(N5CC6CCC(C5)N6)nc(OCC56CCCN5CC(F)C6)nc4c3F)c12` (stereo unspecified), the viability, T/C runs as follows: (compound 0.0316 µM) 102% and 98.2% and 109%; (compound 0.1 µM) 93.6% and 81.8% and 87.3%; (compound 0.316 µM) 73.3% and 77.1% and 80.5%; (compound 1 µM) 78.4% and 77.9% and 83.4%; (compound 3.16 µM) 78.9% and 73.7% and 70.6%; (compound 10 µM) 67.8% and 64.1% and 64.3%. Further, the concentration for half-maximal inhibition (IC50) (curve of compound) was greater than 10 µM.
On to `C=CC(=O)N1CCN(c2nc(=O)n(-c3c(C)ccnc3C(C)C)c3nc(-c4c(O)cccc4F)c(F)cc23)C(C)C1` (stereo unspecified), for which the viability, T/C was 107% (2×) and 105% (compound 0.0316 µM); 92.4% and 101% and 94.3% (compound 0.1 µM); 95% and 94.1% and 97.7% (compound 0.316 µM); 106% and 102% and 109% (compound 1 µM); 104% and 113% and 112% (compound 3.16 µM); 104% and 109% and 108% (compound 10 µM). Where the note is “curve of compound”, the IC50 is greater than 10 µM.
Take `CC1COCCN1c1cc(C2(O)CC3CCC(C2)O3)c2cnn(-c3ccn[nH]3)c2n1` (stereo unspecified): the viability, T/C runs as follows: (compound 0.0316 µM) 108% and 105% and 100%; (compound 0.1 µM) 70.7% and 76.9% and 78.7%; (compound 0.316 µM) 42% and 35.6% and 46%; (compound 1 µM) 33.8% and 33.4% and 34.9%; (compound 3.16 µM) 45.5% and 42.6% and 44.3%; (compound 10 µM) 49.2% and 50.7% and 51.2%. Further, the IC50 (curve of compound) is 0.234 µM and 0.235 µM and 0.272 µM.
As to `CCc1cc2c(N3CCc4c(cc(Cn5ccnc5)cc4-c4cn(C)nc4C(F)(F)F)C3=O)cc(C)nc2c(OC)n1`, the viability, T/C (compound 0.0316 µM) was 109% and 107% and 102%; the viability, T/C (compound 0.1 µM) is 91.4% and 91% and 94.7%; the viability, T/C (compound 0.316 µM) is 80.7% and 86.7% and 85.3%; the viability, T/C (compound 1 µM) was 80.1% and 82% and 77.7%; the viability, T/C (compound 3.16 µM) is 73.1% and 73% and 75.4%; the viability, T/C (compound 10 µM) is 68.1% and 75.8% and 68.3%. The half-inhibitory concentration (IC50) (curve of compound) was greater than 10 µM.
For the molecule `CCc1cc2c(N3CCc4c(cc(Cn5ccnc5)cc4-c4cn(C)nc4C(F)(F)F)C3=O)ccnc2c(OC)n1`, the viability, T/C is 102% (2×) and 107% (compound 0.0316 µM); 84.3% and 91.4% and 86.7% (compound 0.1 µM); 88.2% and 90.7% and 92.4% (compound 0.316 µM); 87.8% and 81.3% and 83.7% (compound 1 µM); 76.5% and 75.1% and 70.2% (compound 3.16 µM); 65.6% and 72.1% and 73% (compound 10 µM). For the same molecule, the IC50 (curve of compound) is greater than 10 µM.
As for `COc1cc2cc(C(=O)CCC(=O)O)sc2cc1OC`, the viability, T/C was 103% and 106% and 111% (compound 0.0316 µM); 102% and 92.6% and 99.8% (compound 0.1 µM); 90.1% and 107% and 96.3% (compound 0.316 µM); 96.8% and 99.9% and 102% (compound 1 µM); 115% and 103% and 100% (compound 3.16 µM); 100% and 98.1% and 91.6% (compound 10 µM). Also, for the setting “curve of compound”, the IC50 is greater than 10 µM.
In the case of `O=C(Nc1ccc(O)c(NS(=O)(=O)c2ccc(F)cc2)c1)c1ccc(-c2ccccc2)cc1`, the viability, T/C is, setting by setting: (compound 0.0316 µM) 104% and 99.9% and 101%; (compound 0.1 µM) 99.1% and 96.7% and 91.7%; (compound 0.316 µM) 102% and 97.6% and 88.4%; (compound 1 µM) 101% and 99.2% and 96%; (compound 3.16 µM) 103% and 99.1% and 99.2%; (compound 10 µM) 104% and 100% and 93.4%. In addition, the IC50 (curve of compound) is greater than 10 µM.
Take `COc1cccc2c1C(=O)c1c(O)c3c(c(O)c1C2=O)CC(O)(C(=O)CO)CC3OC1CC(N)C(O)C(C)O1` (stereo unspecified) + COC1C(OC(N)=O)C(O)C(Oc2ccc3c(O)c(NC(=O)c4ccc(O)c(CC=C(C)C)c4)c(=O)oc3c2C)OC1(C)C: the half-inhibitory concentration (IC50) by setting is: (curve of first compound, second compound 0.0316 µM) greater than 10 µM; (curve of first compound, second compound 0.1 µM) greater than 10 µM; (curve of first compound, second compound 0.316 µM) greater than 10 µM; (curve of first compound, second compound 1 µM) greater than 10 µM; (curve of first compound, second compound 3.16 µM) greater than 10 µM; (curve of first compound, second compound 10 µM) greater than 10 µM. The viability, T/C by setting is: (second compound 0.0316 µM, first compound 0.0316 µM) 94.3%; (second compound 0.0316 µM, first compound 0.1 µM) 79.1%; (second compound 0.0316 µM, first compound 0.316 µM) 64.9%; (second compound 0.0316 µM, first compound 1 µM) 78.1%; (second compound 0.0316 µM, first compound 3.16 µM) 65.2%; (second compound 0.0316 µM, first compound 10 µM) 55.3%. Besides, the viability, T/C is, setting by setting: (second compound 0.1 µM, first compound 0.0316 µM) 104%; (second compound 0.1 µM, first compound 0.1 µM) 84.4%; (second compound 0.1 µM, first compound 0.316 µM) 65.6%; (second compound 0.1 µM, first compound 1 µM) 78.4%; (second compound 0.1 µM, first compound 3.16 µM) 61.2%; (second compound 0.1 µM, first compound 10 µM) 55.2%. In addition, the viability, T/C is 98.2% (second compound 0.316 µM, first compound 0.0316 µM); 86.4% (second compound 0.316 µM, first compound 0.1 µM); 61.3% (second compound 0.316 µM, first compound 0.316 µM); 79.3% (second compound 0.316 µM, first compound 1 µM); 61.9% (second compound 0.316 µM, first compound 3.16 µM); 55.6% (second compound 0.316 µM, first compound 10 µM). The viability, T/C is, setting by setting: (second compound 1 µM, first compound 0.0316 µM) 104%; (second compound 1 µM, first compound 0.1 µM) 92.8%; (second compound 1 µM, first compound 0.316 µM) 68.7%; (second compound 1 µM, first compound 1 µM) 76.3%; (second compound 1 µM, first compound 3.16 µM) 71%; (second compound 1 µM, first compound 10 µM) 53.1%. Besides, the viability, T/C came to 101% (second compound 3.16 µM, first compound 0.0316 µM); 85.5% (second compound 3.16 µM, first compound 0.1 µM); 69.5% (second compound 3.16 µM, first compound 0.316 µM); 73% (second compound 3.16 µM, first compound 1 µM); 67% (second compound 3.16 µM, first compound 3.16 µM); 54.7% (second compound 3.16 µM, first compound 10 µM). In addition, the viability, T/C runs as follows: (second compound 10 µM, first compound 0.0316 µM) 102%; (second compound 10 µM, first compound 0.1 µM) 87.4%; (second compound 10 µM, first compound 0.316 µM) 66.5%; (second compound 10 µM, first compound 1 µM) 78%; (second compound 10 µM, first compound 3.16 µM) 70.8%; (second compound 10 µM, first compound 10 µM) 58.6%.

(Values after PubChem BioAssay AID1963850 (Molecular Pharmacology Branch, DTP, NCI, 2024).)
